Data from US10016382B2, “Method for decreasing skeletal muscle damage and/or oxidative stress in mammals” (LONZA INC., priority 2014, dated 2018).
Where “and” joins values, the source holds several entries; their conditions need not be identical. Equal values may be shown once.

What was measured:
Type in all cases: in vivo, dog
[1] = test system: Creatine kinase (CK); assay: Serum creatine kinase (muscle damage biomarker), Example 1; conditions: for Creatine Kinase, serum, Mean / Change in Creatine Kinase Activity, post-run minus pre-run: Ex.1, 250 mg/d; for Change in Creatine Kinase Activity, post-run minus pre-run: following 15 mile long run at 13 wk, mean ± SEM
Method: Blood Analysis: Serum samples were taken at three different times from each dog during the 90 day period. The blood samples were collected as follows: 1.) just prior to scanning each dog for body composition at the beginning of the study, 2.) prior to the long run on the 13th week, and 3.) following the long run on the 13th week. The serum samples were analyzed for Phosphocreatine Kinase and Canine Myoglobin to determine the amount of muscle protein leakage that occurred following the long run and TBARS and Total Antioxidant Capacity (TAC) were determined to evaluate the antioxidant status of each of the test dogs during the exercise program. The final blood sample was taken 24 hr after the long run to obtain maximum protein leakage based on previous similar types of exercise research with human athletes. Biomarkers and Assay Methods: Blood was drawn from each dog using a serum separator tube at three different times during the 90 day period: 1.) just prior to scanning each dog for body composition at the beginning of the study, 2.) prior to the long run on the 13th week, and 3.) following the long run on the 13th week. The final blood sample was taken 24 hr after the long run to obtain maximum protein leakage based on previous similar types of exercise research with human athletes. Each time after the blood was drawn it was allowed to clot before being centrifuged for 15 min at 2000 g at 4° C. Serum was aliquoted into 1.5 mL microcentrifuge tubes and stored at −80° C. until assays were ran following the end of the study. Creatine kinase (CK) and canine myoglobin were measured to determine the amount of muscle protein leakage that occurred following the long run. Thiobarbituric acid reactive substances (TBARS) and total antioxidant capacity (TAC) were measured to evaluate the antioxidant status of each of the test dogs during the exercise program. Serum samples were analyzed for total antioxidant capacity (TAC) and thiobarbituric acid reactive substances (TBARS) using commercially available colorimetric kits supplied by Cayman Chemical Company (Ann Arbor, Mich.) per manufacturer instructions. Serum canine myoglobin levels were determined using a commercially available ELISA supplied by Innovate Research (Novi, Mich.) per manufacturer instructions. Creatine kinase activity was determined colorimetrically using a commercially available kit supplied by BioVision (San Francisco, Calif.).

[2] = test system: Labrador Retrievers; assay: Activity (APM, APM/kg) by Actical monitor and GPS collar, Example 2 part one; conditions: for APM / APM/kg: crossover L-carnitine dogs
Source text: Both the L-carnitine and control performance dogs were put through a weekly running program consisting of two evenly distributed endurance runs. Groups ranging between 6 and 10 dogs were run together, including both treatments in each group. The endurance runs increased incrementally by 0.5 miles per week (5 miles/session increasing to 10 miles per session over an 11 week period). The dogs were allowed a 1 day rest between runs and a 3 day rest before a scheduled exercise distance increase. The dogs were put through maintenance runs of 5 miles twice in the 12th week and then 2 miles twice in the 13th week. All dogs had at least 4 days of rest prior to the final 15 miles run in the 14th week. The first exercise session during the week consisted only of endurance style running, while the second session included short 100 m sprints at each mile interval in order to incorporate measurable anaerobic exercise into the weekly regimen. The endurance runs were slightly slower to enhance fat oxidation and represent an exercise intensity equivalent to 50%-65% VO2 max. Each performance dog wore the Actical activity monitor and GPS tracking collar during the last 15 mile endurance run. The final run was conducted in a manner analogous to that of Example 1. All activity was accurately and precisely calculated using the GPS tracking monitors. Immediately following the 15 mile endurance run, each dog was placed in a kennel and evaluated for recovery time in body temperature (every 15 minutes for 2 hours) and heart rate (every 2 minutes for up to 20 minutes until basal beats per minute (BPM) was reached). Body temperature and heart rate were measured as described in Example 1.

[3] = test system: total antioxidant capacity (TAC); assay: Serum total antioxidant capacity (TAC), Example 2 part one; conditions: for TAC: serum
Method: Twenty-four hours after test dogs ran the last 15 mile endurance run, serum samples were taken to evaluate biomarkers for muscle damage and antioxidant status. Blood samples were taken 1) just prior to the beginning of the study; 2) 1 day prior to running the final 15 mile run on the 14th week; 3) 1 hour immediately following the 15 mile run; and 4) 24 hours following the final 15 mile run. After a blood sample was drawn, it was allowed to clot for 30 minutes at 25° C. before being centrifuged for 15 minutes at 2000 g at 4° C. Serum was aliquoted into 0.65 mL microcentrifuge tubes and stored at −80° C. until being assayed at the end of the study for creatine kinase, canine myoglobin, thiobarbituric acid reactive substances (TBARS), and total antioxidant capacity (TAC) using the commercially available kits described in Example 1.

[4] = Ex.2 part one, 250 mg/d, 19 L-carnitine dogs that were control dogs in Example 1
[5] = data collected in Example 1 (then control dogs)

C[N+](C)(C)C[C@H](O)CC(=O)[O-] [L-carnitine]
Creatine Kinase Least Sq Mean ([1]; Baseline): 24.88 mU/mL | Creatine Kinase Least Sq Mean ([1]; Baseline, F): 35.85 mU/mL | Creatine Kinase Least Sq Mean ([1]; Baseline, M): 13.91 mU/mL | Creatine Kinase, serum, Mean ([1]; Baseline, both sexes): 22.9 mU · mL | Creatine Kinase, serum, Mean ([1]; Baseline, females): 35.8 mU · mL | Creatine Kinase, serum, Mean ([1]; Baseline, males): 13.9 mU · mL | Creatine Kinase, serum, Mean ([1]; Post-run (24 hr after 15 mile run), both sexes): 16.1 mU · mL | Creatine Kinase, serum, Mean ([1]; Post-run, females): 19.9 mU · mL | Creatine Kinase, serum, Mean ([1]; Post-run, males): 12.2 mU · mL | Creatine Kinase, serum, Mean ([1]; Pre-run (24 hr before 15 mile run), both sexes): 7.0 mU · mL | Creatine Kinase, serum, Mean ([1]; Pre-run, females): 6.9 mU · mL | Creatine Kinase, serum, Mean ([1]; Pre-run, males): 7.0 mU · mL | Change in Creatine Kinase Activity, post-run minus pre-run ([1]; both sexes, text: units): 9.3 and 9.3 ± 1.86 n = 18 | Change in Creatine Kinase Activity, post-run minus pre-run ([1]; females): 13.06 ± 2.06 n = 9 | Change in Creatine Kinase Activity, post-run minus pre-run ([1]; males): 5.54 and 5.54 ± 2.63 n = 9 | Creatine Kinase Least Sq Mean ([1]; Post-run): 16.08 mU/mL | Creatine Kinase Least Sq Mean ([1]; Post-run, F): 19.94 mU/mL | Creatine Kinase Least Sq Mean ([1]; Post-run, M): 12.21 mU/mL | Creatine Kinase Least Sq Mean ([1]; Pre-run): 6.96 mU/mL | Creatine Kinase Least Sq Mean ([1]; Pre-run, F): 6.888 mU/mL | Creatine Kinase Least Sq Mean ([1]; Pre-run, M): 7.032 mU/mL | Creatine Kinase Least Sq Mean ([1]; Treatment * Sex, F): 35.85 mU/mL | Creatine Kinase Least Sq Mean ([1]; Treatment * Sex, M): 13.91 mU/mL | Creatine Kinase Least Sq Mean ([1]; Treatment level, all dogs): 24.88 mU/mL | Creatine Kinase, mixed model Estimate, term Time[Post-run-Pre-run] * Treatment[L-carnitine] ([1]; serum, model term): −2.544 mU/mL | Creatine Kinase, mixed model Estimate, term Time[Post-run-Pre-run] * Treatment[L-carnitine] * Sex[F] ([1]; serum, model term): 1.335 mU/mL | Creatine Kinase, mixed model Estimate, term Time[Pre-run-Baseline] * Treatment[L-carnitine] ([1]; serum, model term): −3.029 mU/mL | Creatine Kinase, mixed model Estimate, term Time[Pre-run-Baseline] * Treatment[L-carnitine] * Sex[F] ([1]; serum, model term): −5.661 mU/mL | Creatine Kinase, mixed model Estimate, term Treatment[L-carnitine] ([1]; serum, model term): 3.121 mU/mL | Creatine Kinase, mixed model Estimate, term Treatment[L-carnitine] * Sex[F] ([1]; serum, model term): 5.935 mU/mL | Crossover activity gain, APM [2, 4]: 27,697 | Crossover activity gain, APM/kg [2, 4]: 975 | APM ([2]; Example 2 part one, 250 mg/d): 63,272 | APM/kg ([2]; Example 2 part one, 250 mg/d): 2274 | APM [2, 5]: 37,621 | APM/kg [2, 5]: 1363 | TAC levels, serum ([3]; Ex.2 part one, 250 mg/d, post-run 24-hr): 0.16 mM Trolox equiv | TAC ([3]; FEMALES, Baseline): 0.15 ± 0.01 mM Trolox Equiv | TAC ([3]; FEMALES, Post-Run 1 Hr): 0.15 ± 0.01 mM Trolox Equiv | TAC ([3]; FEMALES, Post-Run 24 Hr): 0.16 ± 0.01 mM Trolox Equiv | TAC ([3]; FEMALES, Pre-Run): 0.13 ± 0.01 mM Trolox Equiv | TAC ([3]; MALES, Baseline): 0.18 ± 0.01 mM Trolox Equiv | TAC ([3]; MALES, Post-Run 1 Hr): 0.16 ± 0.01 mM Trolox Equiv | TAC ([3]; MALES, Post-Run 24 Hr): 0.16 ± 0.01 mM Trolox Equiv | TAC ([3]; MALES, Pre-Run): 0.15 ± 0.01 mM Trolox Equiv | TAC ([3]; Whole Groups, Baseline): 0.17 ± 0.01 mM Trolox Equiv | TAC ([3]; Whole Groups, Post-Run 1 Hr, Post-Run 1 Hr): 0.15 ± 0.01 mM Trolox Equiv | TAC ([3]; Whole Groups, Post-Run 24 Hr, Post-Run 24 Hr): 0.16 ± 0.01 mM Trolox Equiv | TAC ([3]; Whole Groups, Pre-Run): 0.14 ± 0.01 mM Trolox Equiv
